Converted amounts (≈) assume the structure as drawn.

Data set [1] deals with T1, human GABAA receptor α1, β2 and γ2 subunit (HEK293T cell line) (Homo sapiens, UniProt P14867+P47870).
T1 construct: expressed in transfected cells
The data set is described as follows: Positive regulatory effect on GABAA receptor, manual patch clamp. The following applies: whole-cell current, 1 μM GABA. The data set is classed as cell-based. As to the method: The objective of this test example is to determine the positive regulatory effect of the compound on GABAA receptor by the electrophysiological manual patch clamp method.
Manual patch clamp system HEKA EPC10 USB signal amplifier and digital conversion system (purchased from HEKA Electronics, Germany), centrifuge (Eppendorf, etc.), carbon dioxide incubator (purchased from Thermo, etc.), biological safety cabinet (Thermo, etc.), pipette (purchased from Eppendorf, etc.).
The cells were grown in a culture dish with DMEM medium (purchased from Invitrogen), and cultured in an incubator at 37° C. and 5% CO2. Before the electrophysiological experiment, the cells were transferred to a round glass slide placed in the culture dish, and grown in the same culture medium and under the same culture condition as above. The density of cells on each round glass slide should meet the requirement that most cells were independent and individual.
Each test compound was diluted in gradient with DMSO to obtain a stock solution, which was then diluted with extracellular fluid by 1,000-fold to obtain the final test concentration. The final concentration of DMSO in the compound solution with each concentration was 0.1%. The experiment used the manual patch clamp system HEKA EPC10 USB signal amplifier and digital conversion system for whole cell current recording. The round glass slide with HEK293T GABAA cells grown on the surface was taken out of the culture dish, and placed in the electrophysiological recording tank under the inverted microscope. The recording tank was continuously perfused with extracellular fluid. During the experiment, the whole-cell current recording technology was used to record the chloride current of the GABAA channel. 1 μM GABA was used to activate the chloride current of the GABAA channel of each cell as an initial control. 1 μM GABA acted on the cell through the drug perfusion system to induce the chloride current of the GABAA channel, the action time was about 3 to 5 seconds, and the current value was used as the initial control value. The test concentration of compound was perfused and incubated for 2 to 5 minutes. […] GABA solution (mixed with the test concentration of compound) was given to the cells to observe the enhancement effect of the test compound on the current induced by 1 μM GABA. When the cell state was stable, the test compound acted on the same cell from low to high concentration to record the enhancement effect of the induced current.
The experimental data was analyzed by HEKA Patchmaster, Microsoft Excel and the data analysis software provided by Graphpad Prism.
In general terms: In patch-clamp work, channel activity is measured electrically.

Data set [2] in a line: Solubility experiment (thermodynamic solubility at 37° C.). The data set is classed as physicochemical. The following applies: for solubility at 24 h: 37 °C, thermodynamic from solid. As to the method: The solubility of the free base and salt of the compound in water, Fasted State Simulated Gastric Fluid (FaSGF), Fasted State Simulated Intestinal Fluid (FaSSIF) and Fed State Simulated Intestinal Fluid (FeSSIF) was compared, so as to provide a basis for evaluating the druggability of the crystal form and salt.
About 2 to 3 mg of crystal forms I, II and III of the free base of Example 40 were weighed, suspended in 1 mL of Fasted State Simulated Gastric Fluid (FaSSGF), Fasted State Simulated Intestinal Fluid (FaSSIF), Fed State Simulated Intestinal Fluid (FeSSIF) and pure water respectively, and shaked for 24 hours. Thermodynamic solubility of the compound at 37° C. was determined using HPLC by external standard method.

The nature of data set [3]: Hygroscopicity experiment (DVS). In kind it is physicochemical. As to the method: The hygroscopicity of crystal forms I, II and III of the free base of Example 40 under different relative humidity conditions was investigated, so as to provide a basis for screening of the crystal form and salt of the compound, production and storage.
10 to 15 mg of the free base of Example 40 was placed in the sample chamber of DVS. DVS was carried out, and the vapour sorption weight gain percentage of the compound at 80% RH was recorded at the same time.

Data set [4] is described as follows: Solid stability experiment (total impurities). The data set is classed as physicochemical. The method, then:
The physicochemical stability of candidate crystal forms I, II and III of the free base of Example 40 under influencing factors such as high temperature, high humidity and strong light was investigated, so as to provide a basis for the production and storage of the compound.
The related substance change of the free base was calculated by chromatographic peak area normalization method.

T1 sequence (P14867 28-456): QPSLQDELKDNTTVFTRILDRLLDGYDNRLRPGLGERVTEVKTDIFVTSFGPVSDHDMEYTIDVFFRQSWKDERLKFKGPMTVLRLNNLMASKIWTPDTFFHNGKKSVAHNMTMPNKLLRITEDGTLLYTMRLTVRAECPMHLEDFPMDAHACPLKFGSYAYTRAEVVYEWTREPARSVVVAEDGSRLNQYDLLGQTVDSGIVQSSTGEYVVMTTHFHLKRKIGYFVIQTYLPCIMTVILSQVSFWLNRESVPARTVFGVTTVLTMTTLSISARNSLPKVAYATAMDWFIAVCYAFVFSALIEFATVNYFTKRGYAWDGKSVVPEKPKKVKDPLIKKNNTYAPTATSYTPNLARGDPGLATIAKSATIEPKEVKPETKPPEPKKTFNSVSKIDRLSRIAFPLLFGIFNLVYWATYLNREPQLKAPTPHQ
T1 sequence (P47870 25-512 limits assumed): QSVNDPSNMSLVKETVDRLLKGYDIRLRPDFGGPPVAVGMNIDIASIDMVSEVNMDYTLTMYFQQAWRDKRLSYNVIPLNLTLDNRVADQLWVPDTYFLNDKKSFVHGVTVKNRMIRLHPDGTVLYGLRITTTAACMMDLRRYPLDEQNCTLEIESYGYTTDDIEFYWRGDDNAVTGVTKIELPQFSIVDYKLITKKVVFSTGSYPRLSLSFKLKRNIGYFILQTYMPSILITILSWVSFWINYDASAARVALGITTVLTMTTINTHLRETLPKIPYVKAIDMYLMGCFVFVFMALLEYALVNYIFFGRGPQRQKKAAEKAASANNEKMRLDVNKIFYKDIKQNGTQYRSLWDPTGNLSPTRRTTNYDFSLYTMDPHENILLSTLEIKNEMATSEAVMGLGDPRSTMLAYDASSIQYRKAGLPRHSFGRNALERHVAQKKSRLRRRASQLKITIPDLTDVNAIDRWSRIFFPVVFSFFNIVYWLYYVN
T1 sequence (P18507 40-475 partner): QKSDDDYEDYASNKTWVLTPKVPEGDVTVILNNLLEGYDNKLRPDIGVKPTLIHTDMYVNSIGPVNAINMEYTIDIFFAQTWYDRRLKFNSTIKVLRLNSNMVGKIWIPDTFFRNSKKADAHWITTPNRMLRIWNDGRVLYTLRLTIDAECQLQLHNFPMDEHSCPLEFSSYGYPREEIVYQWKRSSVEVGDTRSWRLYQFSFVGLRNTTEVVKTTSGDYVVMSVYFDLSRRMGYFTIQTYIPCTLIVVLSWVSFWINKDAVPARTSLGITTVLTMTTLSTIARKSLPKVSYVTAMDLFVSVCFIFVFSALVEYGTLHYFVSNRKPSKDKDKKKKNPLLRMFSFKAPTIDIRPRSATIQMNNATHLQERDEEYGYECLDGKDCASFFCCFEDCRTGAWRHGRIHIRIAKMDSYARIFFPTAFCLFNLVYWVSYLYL

The term EC50 denotes the concentration at which the effect is half-maximal. The low end stands for a more potent agent, the high end for a less potent agent. In data set [1], `C[C@@H]1C[C@H](C(=O)Cn2ccc(C#N)n2)[C@@]2(C)CC[C@H]3[C@@H](CC[C@@H]4C[C@](C)(O)CC[C@@H]43)[C@H]12` [Example 40, 1-(2-((3R,5R,8R,9R,10S,13S,14S,15R,17S)-3-Hydroxy-3,13,15-trimethylhexadecahydro-1H-cyclopenta[a]phenanthren-17-yl)-2-oxoethyl)-1H-pyrazole-3-carbonitrile] gave an EC50 of 57 nM.

In general, solubility refers to how much of the substance goes into solution per volume. Read a high solubility as a readily soluble substance. As to `C[C@@H]1C[C@H](C(=O)Cn2ccc(C#N)n2)[C@@]2(C)CC[C@H]3[C@@H](CC[C@@H]4C[C@](C)(O)CC[C@@H]43)[C@H]12` [Crystal form I, 1-(2-((3R,5R,8R,9R,10S,13S,14S,15R,17S)-3-Hydroxy-3,13,15-trimethylhexadecahydro-1H-cyclopenta[a]phenanthren-17-yl)-2-oxoethyl)-1H-pyrazole-3-carbonitrile], the solubility at 24 h was below 1 µg/mL in data set [2] (FaSSGF (Fasted State Simulated Gastric Fluid), fassgf or other biorelevant, FaSSGF); 3.26 µg/mL (≈ 7.7 µM) in data set [2] (FaSSIF (Fasted State Simulated Intestinal Fluid), fassif); 18.2 µg/mL (≈ 43 µM) in data set [2] (FeSSIF (Fed State Simulated Intestinal Fluid), fessif); below 1 µg/mL in data set [2] (pure water, water). Besides, the “solubility compared among the three crystal forms (in words)” value in data set [2] (four media) was “the lowest”. Besides, the “hygroscopicity (in words)” value in data set [3] (DVS) is “no hygroscopicity”. In data set [3] (DVS vapour sorption weight gain at 80% RH, 25° C.), the “Hygroscopicity (25° C./80% RH)” value was 0.07%. In addition, the “Total impurities (%)” value in data set [4] (50° C./75% RH Open, 5 d) stood at 0.56%; in data set [4] (50° C./75% RH Open, 10 d), 0.59%; in data set [4] (60° C. Sealed, 5 d), 0.55%; in data set [4] (60° C. Sealed, 10 d) it was 0.56%; in data set [4] (Initial sample, 0 d), 0.59%; in data set [4] (Light 5k lux Sealed, 10 d), 0.56%. In addition, the “Total impurities (%)” value amounted to 0.57% in data set [4] (Light 5k lux Sealed, column printed 10 d); 0.56% in data set [4] (RT/90% RH Open, 5 d); 0.56% in data set [4] (RT/90% RH Open, column printed 5 d). The “change of impurities (in words)” value in data set [4] (high temperature, high humidity and light for 10 days) is “the impurities did not increase”.

(Values after US12590118B2, “Salt and crystal form of steroid derivative regulator” (Shanghai Hansoh Biomedical Co., Ltd., priority 2019, dated 2026).)
